Experimental data as given in US20090197955A1, “METHODS OF IMPROVING DHA DEPOSITION AND RELATED FUNCTION AND/OR DEVELOPMENT” (Monsanto Company, priority 2008, published 2009).

Assay: Fatty acid composition of pig tissues (ham, loin, belly, skin) after feeding SDA ethyl ester diets, 35 day study
Assay type: in vivo, pigs
Experimental: A 35 day study was conducted to determine whether pigs fed a diet containing SDA could enhance tissues with improved fatty acid profiles including increased levels of SDA, EPA, and DHA.
Four test diets (Treatment 2, 3, 4, and 5) with SDA ethyl ester substituted for corn oil to provide 0.2, 0.4, 0.6 and 0.8% (w/w SDA active ingredient, as-is basis) were fed ad libitum to one pen of four pigs throughout the 35-day test period Table 4). All diets were fed in meal form. Treatment 6 was fed the same diet as Treatment 5, but for a duration of only 21 days.
All pigs were individually weighed at initiation of the acclimation and test period, and immediately prior to slaughter. Feed consumption per pen was recorded. Upon completion of the feeding period, pigs were slaughtered for tissue collection and carcass evaluation. Pigs were slaughtered using standard industry practices (electrical stunning, exsanguinations, scalding, dehairing and evisceration). Live weights prior to slaughter and hot carcass weights were recorded. The left side of each carcass was fabricated and samples were obtained from the loin (longissimus muscle), ham (semimembranosus muscle) and belly (a section from the center of the belly) for sensory evaluation, fatty acid, and proximate analysis. Prior to removing the sample for sensory and fatty and proximate analysis from the belly the firmness of the belly was evaluated using a flop test. At 24 hr postmortem fat thickness (10th rib), loin eye area (10th rib), visual color, firmness and marbling, Minolta color (L*a*b*), pH, and drip loss were measured.
In order to evaluate the fatty acid composition of pig tissues (loin, ham, skin, and belly), samples were stored at −80° C. until evaluation. After thawing, ˜22 g of fresh pig tissue was chopped into small pieces and thoroughly mixed before 10 g was sub sampled and lyophilized. Lyophilized samples were ground in 30 ml Sarstedt tubes with two ball bearings using a Mega Grinder. Ground samples (loin and ham: 50 mg; skin: 100 mg; belly: 150 mg; diet: 500 mg) were directly methylated with sulfuric acid in methanol (loin and ham: 1 mL; skin: 3 mL; belly: 10 mL; diet: 1.5 mL) sealed in the presence of butylated hydroxytoluene (50 mg BHT in 100 ml reagent) in reflux conditions of 90° C. Resultant fatty acid methyl esters (FAME's) were separated by capillary gas chromatography (GC) and detected by flame ionization detector (FID). The column used was a Supelco Omegawax 250 capillary column with dimensions of 30 m×0.25 mm×0.25 μm film thickness. The run time was 32 minutes. Peaks were identified based on their relative retention time compared to a FAME reference mixture. Quantification was achieved by using an internal standard (c15:0 triacylglyceride (TAG) for pig tissue samples and c17:0 TAG for diet samples). Results are reported as FA g/100 g fat with theoretical response correction.
For Table 6 below, each value represents g/100 g total fatty acids a mean of 4 samples (1 sample from each of 4 pigs) per treatment.

With `CC/C=C\C/C=C\C/C=C\C/C=C\CCCCC(=O)O` [SDA, stearidonic acid] as the compound, how does the “22:3 n-6, ham” value (0.8% SDA feed, 35 days) read?
Its value is 0.24 g FA per 100 g fat.

And the “22:5 n-3 (DPA), ham” value (0.8% SDA feed, 35 days)?
The value was 0.83 g FA per 100 g fat.

And the “22:6 n-3 (DHA), ham” value (0.8% SDA feed, 35 days)?
Its value is 0.13 g FA per 100 g fat.

And the “24:1 n-9, ham” value (0.8% SDA feed, 35 days)?
Its value is 0.07 g FA per 100 g fat.

And the “Total PUFA, ham” value (0.8% SDA feed, 35 days)?
The value was 18.89 g FA per 100 g fat.

And the “Total monoenes, ham” value (0.8% SDA feed, 35 days)?
The value was 43.54 g FA per 100 g fat.

What about the “Total n-3, ham” value (0.8% SDA feed, 35 days) of the same compound?
Its value is 2.64 g FA per 100 g fat.

What about the “Total n-6, ham” value (0.8% SDA feed, 35 days) of the same compound?
Its value is 16.25 g FA per 100 g fat.

What about the “Total saturates, ham” value (0.8% SDA feed, 35 days) of the same compound?
Its value is 33.18 g FA per 100 g fat.

What about the “n-6/n-3, ham” value (0.8% SDA feed, 35 days) of the same compound?
The value was 6.16.

And the “12:0, ham” value (SDA 0.2%, 35 Day)?
Its value is 2.04 mg FA/100 g of fresh tissue.

What about the “14:0, ham” value (SDA 0.2%, 35 Day) of the same compound?
The value was 34.0 mg FA/100 g of fresh tissue.

And the “16:0, ham” value (SDA 0.2%, 35 Day)?
Its value is 673.5 mg FA/100 g of fresh tissue.

What about the “16:1 n-7, ham” value (SDA 0.2%, 35 Day) of the same compound?
Its value is 116.6 mg FA/100 g of fresh tissue.

What about the “18:0, ham” value (SDA 0.2%, 35 Day) of the same compound?
Its value is 313.7 mg FA/100 g of fresh tissue.

What about the “18:1 n-7, ham” value (SDA 0.2%, 35 Day) of the same compound?
Its value is 146.2 mg FA/100 g of fresh tissue.

And the “18:1 n-9, ham” value (SDA 0.2%, 35 Day)?
Its value is 1303.4 mg FA/100 g of fresh tissue.

And the “18:2 n-6, ham” value (SDA 0.2%, 35 Day)?
Its value is 264.7 mg FA/100 g of fresh tissue.

And the “18:3 n-3, ham” value (SDA 0.2%, 35 Day)?
The value was 5.60 mg FA/100 g of fresh tissue.

And the “18:4 n-3, ham” value (SDA 0.2%, 35 Day)?
The value was 0.76ab mg FA/100 g of fresh tissue.

What about the “20:1 n-9, ham” value (SDA 0.2%, 35 Day) of the same compound?
The value was 22.0 mg FA/100 g of fresh tissue.

What about the “20:2 n-6, ham” value (SDA 0.2%, 35 Day) of the same compound?
Its value is 11.4a mg FA/100 g of fresh tissue.

And the “20:3 n-3, ham” value (SDA 0.2%, 35 Day)?
The value was 0.91 mg FA/100 g of fresh tissue.

And the “20:4 n-3, ham” value (SDA 0.2%, 35 Day)?
Its value is 2.23ab mg FA/100 g of fresh tissue.

And the “20:4 n-6, ham” value (SDA 0.2%, 35 Day)?
The value was 57.4 mg FA/100 g of fresh tissue.

What about the “20:5 n-3, ham” value (SDA 0.2%, 35 Day) of the same compound?
The value was 3.98a mg FA/100 g of fresh tissue.

And the “22:1 n-11, ham” value (SDA 0.2%, 35 Day)?
Its value is 1.06ab mg FA/100 g of fresh tissue.

What about the “22:5 n-3, ham” value (SDA 0.2%, 35 Day) of the same compound?
Its value is 11.1b mg FA/100 g of fresh tissue.

And the “22:6 n-3, ham” value (SDA 0.2%, 35 Day)?
The value was 2.21 mg FA/100 g of fresh tissue.

And the “Lipid content, ham” value (SDA 0.2%, 35 Day)?
The value was 3.15%.

What about the “Total PUFA, ham” value (SDA 0.2%, 35 Day) of the same compound?
Its value is 377.9 mg FA/100 g of fresh tissue.

And the “Total monoenes, ham” value (SDA 0.2%, 35 Day)?
The value was 1600 mg FA/100 g of fresh tissue.

What about the “Total n-3, ham” value (SDA 0.2%, 35 Day) of the same compound?
Its value is 26.8a mg FA/100 g of fresh tissue.

What about the “Total n-6, ham” value (SDA 0.2%, 35 Day) of the same compound?
Its value is 351.2 mg FA/100 g of fresh tissue.

What about the “Total saturates, ham” value (SDA 0.2%, 35 Day) of the same compound?
The value was 1029.0 mg FA/100 g of fresh tissue.

What about the “n-3/n-6, ham” value (SDA 0.2%, 35 Day) of the same compound?
The value was 0.080b.

And the “12:0, ham” value (SDA 0.4%, 35 Day)?
The value was 2.22 mg FA/100 g of fresh tissue.

What about the “14:0, ham” value (SDA 0.4%, 35 Day) of the same compound?
The value was 38.2 mg FA/100 g of fresh tissue.

And the “16:0, ham” value (SDA 0.4%, 35 Day)?
The value was 748.4 mg FA/100 g of fresh tissue.

And the “16:1 n-7, ham” value (SDA 0.4%, 35 Day)?
The value was 121.6 mg FA/100 g of fresh tissue.

What about the “18:0, ham” value (SDA 0.4%, 35 Day) of the same compound?
Its value is 370.6 mg FA/100 g of fresh tissue.

And the “18:1 n-7, ham” value (SDA 0.4%, 35 Day)?
Its value is 151.0 mg FA/100 g of fresh tissue.

What about the “18:1 n-9, ham” value (SDA 0.4%, 35 Day) of the same compound?
Its value is 1404.9 mg FA/100 g of fresh tissue.

And the “18:2 n-6, ham” value (SDA 0.4%, 35 Day)?
The value was 316.6 mg FA/100 g of fresh tissue.

What about the “18:3 n-3, ham” value (SDA 0.4%, 35 Day) of the same compound?
Its value is 9.17 mg FA/100 g of fresh tissue.

And the “18:4 n-3, ham” value (SDA 0.4%, 35 Day)?
Its value is 1.45b mg FA/100 g of fresh tissue.

And the “20:1 n-9, ham” value (SDA 0.4%, 35 Day)?
Its value is 23.6 mg FA/100 g of fresh tissue.

And the “20:2 n-6, ham” value (SDA 0.4%, 35 Day)?
Its value is 12.7a mg FA/100 g of fresh tissue.

And the “20:3 n-3, ham” value (SDA 0.4%, 35 Day)?
Its value is 1.49 mg FA/100 g of fresh tissue.

What about the “20:4 n-3, ham” value (SDA 0.4%, 35 Day) of the same compound?
The value was 5.04bc mg FA/100 g of fresh tissue.

What about the “20:4 n-6, ham” value (SDA 0.4%, 35 Day) of the same compound?
Its value is 64.3 mg FA/100 g of fresh tissue.

What about the “20:5 n-3, ham” value (SDA 0.4%, 35 Day) of the same compound?
Its value is 7.91b mg FA/100 g of fresh tissue.

And the “22:1 n-11, ham” value (SDA 0.4%, 35 Day)?
The value was 1.25b mg FA/100 g of fresh tissue.

What about the “22:5 n-3, ham” value (SDA 0.4%, 35 Day) of the same compound?
Its value is 15.2c mg FA/100 g of fresh tissue.

And the “22:6 n-3, ham” value (SDA 0.4%, 35 Day)?
Its value is 2.59 mg FA/100 g of fresh tissue.

What about the “Lipid content, ham” value (SDA 0.4%, 35 Day) of the same compound?
Its value is 3.5%.

And the “Total PUFA, ham” value (SDA 0.4%, 35 Day)?
The value was 459.2 mg FA/100 g of fresh tissue.

And the “Total monoenes, ham” value (SDA 0.4%, 35 Day)?
Its value is 1715 mg FA/100 g of fresh tissue.

And the “Total n-3, ham” value (SDA 0.4%, 35 Day)?
Its value is 42.9b mg FA/100 g of fresh tissue.

What about the “Total n-6, ham” value (SDA 0.4%, 35 Day) of the same compound?
Its value is 416.4 mg FA/100 g of fresh tissue.

And the “Total saturates, ham” value (SDA 0.4%, 35 Day)?
The value was 1166.5 mg FA/100 g of fresh tissue.

What about the “n-3/n-6, ham” value (SDA 0.4%, 35 Day) of the same compound?
The value was 0.101bc.

What about the “12:0, ham” value (SDA 0.6%, 35 Day) of the same compound?
The value was 1.37 mg FA/100 g of fresh tissue.

And the “14:0, ham” value (SDA 0.6%, 35 Day)?
The value was 23.9 mg FA/100 g of fresh tissue.

What about the “16:0, ham” value (SDA 0.6%, 35 Day) of the same compound?
The value was 482.6 mg FA/100 g of fresh tissue.

And the “16:1 n-7, ham” value (SDA 0.6%, 35 Day)?
Its value is 69.5 mg FA/100 g of fresh tissue.

And the “18:0, ham” value (SDA 0.6%, 35 Day)?
The value was 252.5 mg FA/100 g of fresh tissue.

What about the “18:1 n-7, ham” value (SDA 0.6%, 35 Day) of the same compound?
Its value is 92.6 mg FA/100 g of fresh tissue.

What about the “18:1 n-9, ham” value (SDA 0.6%, 35 Day) of the same compound?
The value was 854.9 mg FA/100 g of fresh tissue.

What about the “18:2 n-6, ham” value (SDA 0.6%, 35 Day) of the same compound?
The value was 215.7 mg FA/100 g of fresh tissue.

What about the “18:3 n-3, ham” value (SDA 0.6%, 35 Day) of the same compound?
The value was 5.03 mg FA/100 g of fresh tissue.
